In patent US12441765B2, “Peptides and medical uses thereof” (Anbition S.R.L., priority 2018, dated 2025):
Where two headings read alike, the source gives them in different places. Each block holds one molecule with its values, some of them ahead of it.

Experiments:
[1] = Serum protease stability in 10% fetal calf serum (RP-HPLC); type: in vitro ADME; details: 10% FCS
Protocol: The stability of the peptide iVR1-Cys in 10% serum (fetal calf serum, FCS) in a 50 mM phosphate buffer solution, pH 7.3, at 168 h was determined as described by Ponticelli et al., relying on a method based on RP-HPLC chromatography, described therein [Ponticelli et al., J Biol Chem. 2008 Dec. 5; 283 (49): 34250-9].
The reference curve was constructed by dissolving the compound in DMSO at increasing concentrations of between 0.1 μmol/L and 1000 μmol/L in order to have complete dissolution. The concentration of the molecule left in contact with 10% FCS at the initial concentration of 10 μmol/L was then determined by drawing 3 aliquots at time t=0, then every hour in the first 12 hours and then at 24, 72, 120, and 168 h. The aliquots were diluted 1:1 with acetic acid 0.1 M in order to detach any peptide bound to the albumin, centrifuged to remove any precipitated materials and analyzed by RP-HPLC under the conditions reported in Ponticelli et al. The amount of residual peptide detected in the aliquots, expressed as a percentage relative to the initial amount, was plotted as a function of time. The results are shown in Table VII as the mean of the three determinations±the standard deviation (SD).

PIGF/VEGFR-1 interaction = biological target: T1, PIGF/VEGFR-1 interaction (Homo sapiens, UniProt P17948); assay: ELISA competition assay of PIGF binding to VEGFR-1; details: for binding % (PIGF/VEGFR-1 interaction): residual binding
T1 construct: the form consisting of the seven extracellular domains of the receptor fused to the Fc domain of human lgG; purchased R&D Systems 321-FL (receptor); 264-PG (PlGF)
T1 sequence (P17948 27-758 limits assumed): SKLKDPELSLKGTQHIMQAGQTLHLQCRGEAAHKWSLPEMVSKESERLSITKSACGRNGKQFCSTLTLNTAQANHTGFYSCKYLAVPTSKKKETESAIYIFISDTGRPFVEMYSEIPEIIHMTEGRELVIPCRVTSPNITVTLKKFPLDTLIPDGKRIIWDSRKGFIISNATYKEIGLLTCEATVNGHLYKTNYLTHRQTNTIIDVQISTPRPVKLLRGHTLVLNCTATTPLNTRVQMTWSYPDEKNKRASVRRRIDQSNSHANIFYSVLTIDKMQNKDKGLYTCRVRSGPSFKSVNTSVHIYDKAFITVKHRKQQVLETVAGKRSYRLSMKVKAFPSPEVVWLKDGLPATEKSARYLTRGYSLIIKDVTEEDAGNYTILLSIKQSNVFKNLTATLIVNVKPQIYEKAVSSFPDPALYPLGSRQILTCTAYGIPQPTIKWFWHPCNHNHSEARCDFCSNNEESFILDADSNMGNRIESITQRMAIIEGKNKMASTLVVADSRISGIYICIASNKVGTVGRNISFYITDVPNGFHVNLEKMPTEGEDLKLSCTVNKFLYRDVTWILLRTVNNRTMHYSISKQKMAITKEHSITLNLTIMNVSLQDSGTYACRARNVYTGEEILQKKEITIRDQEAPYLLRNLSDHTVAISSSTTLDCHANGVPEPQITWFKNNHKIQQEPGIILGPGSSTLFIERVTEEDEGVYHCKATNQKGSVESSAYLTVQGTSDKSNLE
Protocol: The assay to test the binding of PIGF or VEGF-A with the VEGFR-1 receptor is based on the ELISA method [Ponticelli et al., JBC. 2008 Dec. 5; 283 (49): 34250-9] and was performed using reagents acquired from R&D Systems.
The human recombinant receptor VEGFR-1, in particular the form consisting of the seven extracellular domains of the receptor fused to the Fc domain of human lgG (R&D Systems, cat N° 321-FL), was made to adhere in the wells of 96-well microplates at a concentration of 0.5 μg/ml in PBS pH 7.5 (100 μl/well) for 16 hours at room temperature (RT).
After the non-specific binding sites had been blocked in the wells using a buffer solution consisting of PBS pH 7.5 containing 3% BSA, 5 ng/ml of recombinant PIGF (R&D Systems, cat N° 264-PG), or 5 ng/ml of recombinant VEGF-A (R&D Systems, cat N° 293-VE) of human origin in PBET (PBS pH 7.5, BSA 0.1%, EDTA 5 mM, Tween 0.004%) were added to the wells with the adhered receptor.
Simultaneously with the ligands, i.e., PIGF or VEGF-A, graduated doses of iVR1, iVR1-Cys or a control peptide (PC-[(S-Ser)-(S-Ala)-(S-Cha) tripeptide with a tetrameric structure identical to the structure of the iVR1 peptides]) were added at concentrations comprised between 780 and 50000 nM. The binding reaction was conducted for one hour at 37° C., followed by one hour at room temperature.
(§1) At the end of the binding and/or competition step, anti-human-PIGF biotinylated polyclonal antibodies (R&D Systems, cat No. BAF264) or anti-human-VEGF-A (R&D Systems, cat No. BAF293) were added to the wells at the concentration of 300 ng/ml in PBET. After one hour of incubation at 37° C. followed by one hour at room temperature, an HRP-conjugated avidin-streptavidin system (Vectastain elite ABC kit) and a substrate for HRP (o-phenylenediamine-Sigma, cat No. P1526) were added to the wells. Quantization was performed by determining the absorbance at 490 nm.
Any inhibitory activity of the peptides was expressed in terms of % of residual binding, comparing the data obtained for the binding of PIGF or VEGF-A to the receptors in the presence of the tetrameric peptides with those in the absence of the same. iVR1 represented the positive control of the inhibition of the PIGF/VEGFR-1 or VEGF-A/VEGFR-1 interaction.

[2] = biological target: T2, VEGF-A/VEGFR-1 interaction (Homo sapiens, UniProt P17948); assay: ELISA competition assay of VEGF-A binding to VEGFR-1; details: for binding % (VEGF-A/VEGFR-1 interaction): residual binding
T2 construct: the form consisting of the seven extracellular domains of the receptor fused to the Fc domain of human lgG; purchased R&D Systems 321-FL (receptor); 293-VE (VEGF-A)
T2 sequence (P17948 27-758 limits assumed): as above
Protocol: as §1, with “The binding reaction was conducted for one hour at 37° C., followed by one hour at room temperature. At” for “At”, “nm. Any inhibitory activity of the peptides was expressed in terms of % of residual binding, comparing the data obtained for the binding of PIGF or VEGF-A to the receptors in the presence of the tetrameric peptides with those in the absence of the same. iVR1 represented the positive control of the inhibition of the PIGF/VEGFR-1 or VEGF-A/VEGFR-1 interaction.” for “nm.”

VEGFR1 = VEGFR1 (Homo sapiens, UniProt P17948); details: cited from earlier work
Sequence of VEGFR1 (P17948 27-1338): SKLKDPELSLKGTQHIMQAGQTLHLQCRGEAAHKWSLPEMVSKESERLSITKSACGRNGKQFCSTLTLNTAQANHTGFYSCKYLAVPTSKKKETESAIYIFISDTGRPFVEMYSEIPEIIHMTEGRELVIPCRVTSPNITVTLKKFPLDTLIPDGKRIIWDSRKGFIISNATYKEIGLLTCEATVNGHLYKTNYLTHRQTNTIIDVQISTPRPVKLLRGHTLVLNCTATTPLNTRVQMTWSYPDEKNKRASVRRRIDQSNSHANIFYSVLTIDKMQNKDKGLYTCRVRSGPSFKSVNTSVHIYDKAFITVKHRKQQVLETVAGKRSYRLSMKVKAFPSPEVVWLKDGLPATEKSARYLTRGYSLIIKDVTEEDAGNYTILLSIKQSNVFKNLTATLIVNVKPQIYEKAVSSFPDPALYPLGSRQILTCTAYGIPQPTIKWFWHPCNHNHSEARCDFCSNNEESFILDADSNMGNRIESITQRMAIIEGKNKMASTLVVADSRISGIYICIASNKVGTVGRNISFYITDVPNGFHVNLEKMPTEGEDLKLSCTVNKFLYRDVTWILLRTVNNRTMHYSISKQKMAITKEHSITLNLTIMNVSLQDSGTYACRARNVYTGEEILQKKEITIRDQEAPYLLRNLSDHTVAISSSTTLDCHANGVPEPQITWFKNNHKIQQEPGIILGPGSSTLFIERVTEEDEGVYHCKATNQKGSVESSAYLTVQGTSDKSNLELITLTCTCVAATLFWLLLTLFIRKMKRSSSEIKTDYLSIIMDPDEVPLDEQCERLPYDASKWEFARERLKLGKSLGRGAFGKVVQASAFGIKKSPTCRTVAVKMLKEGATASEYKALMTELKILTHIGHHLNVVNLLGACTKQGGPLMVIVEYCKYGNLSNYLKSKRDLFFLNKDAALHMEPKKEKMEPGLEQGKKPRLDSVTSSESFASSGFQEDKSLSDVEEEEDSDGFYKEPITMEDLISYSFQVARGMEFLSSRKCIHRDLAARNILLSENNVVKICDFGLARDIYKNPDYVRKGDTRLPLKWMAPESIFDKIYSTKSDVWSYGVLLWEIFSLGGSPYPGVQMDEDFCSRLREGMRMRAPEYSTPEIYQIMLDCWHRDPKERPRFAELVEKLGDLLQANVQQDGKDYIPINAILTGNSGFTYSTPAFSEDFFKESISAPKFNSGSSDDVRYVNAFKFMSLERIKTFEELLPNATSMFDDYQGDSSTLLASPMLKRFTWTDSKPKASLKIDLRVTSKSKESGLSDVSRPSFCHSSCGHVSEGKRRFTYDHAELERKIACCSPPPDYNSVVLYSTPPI

% residual peptide ± SD ([1]; 0 h, 50 mM phosphate buffer pH 7.3, initial 10 μmol/L): 101 ± 4%
remaining at 1 h, 10 μmol/L ([1]; calf (bovine), 10% fetal calf serum, 1 h, pH 7.3, read-out: % residual peptide ± SD): 100 ± 11%
remaining at 2 h, 10 μmol/L ([1]; calf (bovine), 10% fetal calf serum, 2 h, pH 7.3, read-out: % residual peptide ± SD): 99 ± 7%
remaining at 3 h, 10 μmol/L ([1]; calf (bovine), 10% fetal calf serum, 3 h, pH 7.3, read-out: % residual peptide ± SD): 98 ± 5%
remaining at 4 h, 10 μmol/L ([1]; calf (bovine), 10% fetal calf serum, 4 h, pH 7.3, read-out: % residual peptide ± SD): 97 ± 4%
remaining at 5 h, 10 μmol/L ([1]; calf (bovine), 10% fetal calf serum, 5 h, pH 7.3, read-out: % residual peptide ± SD): 96 ± 5%
remaining at 6 h, 10 μmol/L ([1]; calf (bovine), 10% fetal calf serum, 6 h, pH 7.3, read-out: % residual peptide ± SD): 99 ± 6%
remaining at 7 h, 10 μmol/L ([1]; calf (bovine), 10% fetal calf serum, 7 h, pH 7.3, read-out: % residual peptide ± SD): 95 ± 8%
remaining at 8 h, 10 μmol/L ([1]; calf (bovine), 10% fetal calf serum, 8 h, pH 7.3, read-out: % residual peptide ± SD): 96 ± 5%
remaining at 9 h, 10 μmol/L ([1]; calf (bovine), 10% fetal calf serum, 9 h, pH 7.3, read-out: % residual peptide ± SD): 95 ± 6%
remaining at 10 h, 10 μmol/L ([1]; calf (bovine), 10% fetal calf serum, 10 h, pH 7.3, read-out: % residual peptide ± SD): 94 ± 10%
remaining at 11 h, 10 μmol/L ([1]; calf (bovine), 10% fetal calf serum, 11 h, pH 7.3, read-out: % residual peptide ± SD): 94 ± 8%
remaining at 12 h, 10 μmol/L ([1]; calf (bovine), 10% fetal calf serum, 12 h, pH 7.3, read-out: % residual peptide ± SD): 93 ± 4%
remaining at 24 h, 10 μmol/L ([1]; calf (bovine), 10% fetal calf serum, 24 h, pH 7.3, read-out: % residual peptide ± SD): 93 ± 6%
remaining at 72 h, 10 μmol/L ([1]; calf (bovine), 10% fetal calf serum, 72 h, pH 7.3, read-out: % residual peptide ± SD): 92 ± 7%
remaining at 120 h, 10 μmol/L ([1]; calf (bovine), 10% fetal calf serum, 120 h, pH 7.3, read-out: % residual peptide ± SD): 91 ± 5%
remaining at 168 h, 10 μmol/L ([1]; calf (bovine), 10% fetal calf serum, 168 h, pH 7.3, read-out: % residual peptide ± SD): 92 ± 8%
SMILES: N[C@H](CCC(=O)O)C(=O)N[C@@H](CSCc1ccccc1)C(=O)N[C@@H](CC1CCCCC1)C(=O)NCCCC[C@H](NC(=O)[C@H](CC1CCCCC1)NC(=O)[C@H](CSCc1ccccc1)NC(=O)[C@H](N)CCC(=O)O)C(=O)NCCCC[C@H](NC(=O)[C@H](CCCCNC(=O)[C@H](CC1CCCCC1)NC(=O)[C@H](CSCc1ccccc1)NC(=O)[C@H](N)CCC(=O)O)NC(=O)[C@H](CC1CCCCC1)NC(=O)[C@H](CSCc1ccccc1)NC(=O)[C@H](N)CCC(=O)O)C(=O)N[C@H](CS)C(=O)O [iVR1-Cys]

binding % (PIGF/VEGFR-1 interaction) (PIGF/VEGFR-1 interaction; peptide 780 nM): 99.36%
binding % (PIGF/VEGFR-1 interaction) (PIGF/VEGFR-1 interaction; peptide 1560 nM): 101.32%
binding % (PIGF/VEGFR-1 interaction) (PIGF/VEGFR-1 interaction; peptide 3125 nM): 96.10%
binding % (PIGF/VEGFR-1 interaction) (PIGF/VEGFR-1 interaction; peptide 6250 nM): 68.49%
binding % (PIGF/VEGFR-1 interaction) (PIGF/VEGFR-1 interaction; peptide 12500 nM): 44.57%
binding % (PIGF/VEGFR-1 interaction) (PIGF/VEGFR-1 interaction; peptide 25000 nM): 36.02%
binding % (PIGF/VEGFR-1 interaction) (PIGF/VEGFR-1 interaction; peptide 50000 nM): 26.26%
IC50 (PIGF/VEGFR-1 interaction; read-out: IC50 of inhibition of the interaction of PIGF with VEGFR-1): ~10 µM
binding % (VEGF-A/VEGFR-1 interaction) ([2]; peptide 780 nM): 98.36%
binding % (VEGF-A/VEGFR-1 interaction) ([2]; peptide 1560 nM): 96.21%
binding % (VEGF-A/VEGFR-1 interaction) ([2]; peptide 3125 nM): 93.93%
binding % (VEGF-A/VEGFR-1 interaction) ([2]; peptide 6250 nM): 66.00%
binding % (VEGF-A/VEGFR-1 interaction) ([2]; peptide 12500 nM): 37.02%
binding % (VEGF-A/VEGFR-1 interaction) ([2]; peptide 25000 nM): 21.45%
binding % (VEGF-A/VEGFR-1 interaction) ([2]; peptide 50000 nM): 8.60%
IC50 ([2]; read-out: IC50 for VEGF-A/VEGFR-1 inhibition): ~10 µM
SMILES: N[C@H](CCC(=O)O)C(=O)N[C@@H](CSCc1ccccc1)C(=O)N[C@@H](CC1CCCCC1)C(=O)NCCCC[C@H](NC(=O)[C@H](CC1CCCCC1)NC(=O)[C@H](CSCc1ccccc1)NC(=O)[C@H](N)CCC(=O)O)C(=O)NCCCC[C@H](NC(=O)[C@H](CCCCNC(=O)[C@H](CC1CCCCC1)NC(=O)[C@H](CSCc1ccccc1)NC(=O)[C@H](N)CCC(=O)O)NC(=O)[C@H](CC1CCCCC1)NC(=O)[C@H](CSCc1ccccc1)NC(=O)[C@H](N)CCC(=O)O)C(=O)NCC(=O)O [iVR1]
IC50 (VEGFR1; in vitro, reported by Ponticelli et al., read-out: IC50 of inhibition of the interaction of PIGF, VEGF-A and VEGF-B with VEGFR1): ~10 µM
IC50 (VEGFR1; reported in Ponticelli et al., read-out: affinity towards VEGFR1 (expressed as IC50)): ≥ 10 µM
